This is an account of results in ChEMBL document CHEMBL1201862, “PubChem BioAssay data set” (2004).

Some test systems named below: 786-0; A498; COLO 205; DU-145; HT-29; MDA-MB-231; MDA-MB-435; MDA-N; Malme-3M; SF-268; SF-295; SK-MEL-28; SK-OV-3; SN12C; SR; SW-620; T47D; TK-10; UACC-257; UACC-62.
Holding throughout (assay): NCI tumour cell line growth inhibition, 48 h

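Cultured in 96-well plates, cells were exposed to test compound for 48 hours across five concentrations. Abbreviation: GI50, concentration required for 50% inhibition of growth.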 The source made the active and inactive calls. No stated cut-off is given here; in the data, active = GI50 up to about 1.1 µM and inactive = higher.

Turning to `Clc1cccc(Cl)c1/C=N/C12CC3CC(CC(C3)C1)C2`, the GI50 in the experiment with 786-0, with A498, in the experiment on COLO 205, with DU-145, with HT-29 and in the experiment on MDA-MB-231 was > 10 µM (inactive) each time. In addition, the GI50 in the experiment with MDA-MB-435, with MDA-N, in the experiment on Malme-3M, in the experiment with SF-268, with SF-295 and in the experiment on SK-MEL-28 was > 10 µM (inactive) in each case. In addition, the GI50 in the experiment on SK-OV-3 is > 10 µM (inactive); with SN12C, > 10 µM (inactive); in the experiment on SR it was 3.26 µM (inactive); in the experiment on SW-620, > 10 µM (inactive); in the experiment with T47D it was > 10 µM (inactive); in the experiment with TK-10 it was > 10 µM (inactive). Moreover, the GI50 with UACC-257 and with UACC-62 was > 10 µM (inactive) throughout.
Regarding `CCC(=O)c1cc(C(=O)C(=S)SC)cc(C(=O)C(=S)SC)c1`, the GI50 was > 85.7 µM (inactive) with 786-0; > 100 µM (inactive) in the experiment with A498; > 100 µM (inactive) with COLO 205; > 100 µM (inactive) with DU-145; > 100 µM (inactive) in the experiment on HT-29; > 100 µM (inactive) in the experiment with MDA-MB-231. The GI50 was > 100 µM (inactive) in the experiment with MDA-MB-435; > 100 µM (inactive) with MDA-N; > 27.3 µM (inactive) with Malme-3M; > 100 µM (inactive) in the experiment with SF-268; > 100 µM (inactive) with SF-295; > 100 µM (inactive) with SK-MEL-28. The GI50 was > 100 µM (inactive) in the experiment on SK-OV-3; > 100 µM (inactive) with SN12C; 11 µM (inactive) in the experiment with SR; 52.8 µM (inactive) with SW-620; > 100 µM (inactive) in the experiment with T47D; > 100 µM (inactive) in the experiment with TK-10. Moreover, the GI50 in the experiment on UACC-257 and with UACC-62 was > 100 µM (inactive) throughout.
On to `CC[C@]12C=CCN3CCC4(c5cc(/N=N/c6ccc([N+](=O)[O-])cc6)c(OC)cc5N(C)[C@H]4[C@@](O)(C(=O)OC)[C@@H]1OC(C)=O)[C@@H]32` (stereo not given in full), for which the GI50 was 11.8 µM (inactive) in the experiment with 786-0; 14.1 µM (inactive) in the experiment with A498; 4.63 µM (inactive) in the experiment on COLO 205; 22.8 µM (inactive) in the experiment with DU-145; 10.4 µM (inactive) with HT-29; 9.59 µM (inactive) in the experiment with MDA-MB-231. Also, the GI50 in the experiment with MDA-MB-435 is 11.7 µM (inactive); in the experiment on MDA-N, 12.9 µM (inactive); in the experiment with Malme-3M, 16.1 µM (inactive); in the experiment with SF-268 it was 16.2 µM (inactive); in the experiment on SF-295, 10.6 µM (inactive); in the experiment on SK-MEL-28, 11.8 µM (inactive). The GI50 in the experiment with SK-OV-3 was 18 µM (inactive); in the experiment with SN12C, 23.8 µM (inactive); with SR, 9.71 µM (inactive); with SW-620 it was 2.56 µM (inactive); in the experiment with T47D it was 13.3 µM (inactive); in the experiment on TK-10 it was 17.2 µM (inactive). Also, the GI50 is 14.7 µM (inactive) with UACC-257 and 17.2 µM (inactive) in the experiment on UACC-62.
For `O=C(c1ccc(Cl)cc1)C1OC12C(=O)Nc1ccccc12` (stereo not given), the GI50 in the experiment on 786-0 is 11.7 µM (inactive); in the experiment on A498, 19.7 µM (inactive); in the experiment with COLO 205 it was 2.86 µM (inactive); in the experiment with DU-145, 19.1 µM (inactive); in the experiment with HT-29 it was 8.51 µM (inactive); in the experiment with MDA-MB-231, 21 µM (inactive). Moreover, the GI50 was 16.9 µM (inactive) in the experiment with MDA-MB-435; 3.64 µM (inactive) in the experiment with MDA-N; 4.55 µM (inactive) in the experiment on Malme-3M; 16.8 µM (inactive) in the experiment on SF-268; 18 µM (inactive) in the experiment with SF-295; 15.2 µM (inactive) with SK-MEL-28. Also, the GI50 in the experiment on SK-OV-3 is 25.1 µM (inactive); in the experiment on SN12C, 6.01 µM (inactive); in the experiment with SR, 0.731 µM (active); in the experiment on SW-620 it was 3.52 µM (inactive); in the experiment on T47D, 16.3 µM (inactive); in the experiment on TK-10 it was 20.7 µM (inactive). Besides, the GI50 is 13.8 µM (inactive) in the experiment on UACC-257 and 14.8 µM (inactive) with UACC-62.
Turning to `COc1ccccc1NC(=S)N/N=C(/c1ccccc1)c1ccccn1`, the GI50 was 0.103 µM (active) with 786-0; 1.38 µM (inactive) in the experiment with A498; 0.0173 µM (active) in the experiment on COLO 205; 0.325 µM (active) in the experiment on DU-145; 0.0101 µM (active) with HT-29; 0.0214 µM (active) with MDA-MB-231. For the same compound, the GI50 is 0.356 µM (active) in the experiment on MDA-MB-435; 0.229 µM (active) in the experiment with MDA-N; 0.167 µM (active) in the experiment with Malme-3M; 0.144 µM (active) in the experiment on SF-268; 0.261 µM (active) with SF-295; 1.39 µM (inactive) with SK-MEL-28. Further, the GI50 was 0.0771 µM (active) with SK-OV-3; 0.685 µM (active) in the experiment on SN12C; < 0.0206 µM (active) in the experiment with SR; 0.021 µM (active) in the experiment on SW-620; < 0.0426 µM (active) with T47D; 0.125 µM (active) with TK-10. Also, the GI50 in the experiment with UACC-257 is < 0.0167 µM (active); with UACC-62, 0.273 µM (active).
With `CN(C)c1ccc(/C=C(\NC(=O)c2ccccc2)C2=NC(CCC(=O)O)C(=O)O2)cc1` (stereo not given), the GI50 with 786-0, with A498, in the experiment with COLO 205, in the experiment on DU-145, with HT-29 and in the experiment on MDA-MB-231 was > 50 µM (inactive) in each case. For the same compound, the GI50 is > 50 µM (inactive) with MDA-MB-435; > 50 µM (inactive) in the experiment with MDA-N; > 31.3 µM (inactive) in the experiment on Malme-3M; > 50 µM (inactive) in the experiment on SF-268; > 50 µM (inactive) in the experiment with SF-295; > 50 µM (inactive) in the experiment on SK-MEL-28. In addition, the GI50 is > 50 µM (inactive) in the experiment on SK-OV-3; > 50 µM (inactive) in the experiment on SN12C; 49.2 µM (inactive) with SR; > 50 µM (inactive) in the experiment on SW-620; > 50 µM (inactive) in the experiment with T47D; > 50 µM (inactive) with TK-10. For the same compound, the GI50 in the experiment with UACC-257 and in the experiment with UACC-62 was > 50 µM (inactive) each time.
As for `Cc1cc(C)nc(NS(=O)(=O)c2ccc(NC(=O)c3ccc4nc5ccccc5c(Nc5ccc(S(=O)(=O)Nc6nc(C)cc(C)n6)cc5)c4c3)cc2)n1`, the GI50 is > 100 µM (inactive) with 786-0; > 100 µM (inactive) in the experiment with A498; > 100 µM (inactive) in the experiment with COLO 205; > 100 µM (inactive) in the experiment with DU-145; 64.9 µM (inactive) in the experiment on HT-29; 20.8 µM (inactive) in the experiment on MDA-MB-231. Besides, the GI50 is > 100 µM (inactive) with MDA-MB-435; 91 µM (inactive) in the experiment with MDA-N; 67.5 µM (inactive) in the experiment with Malme-3M; 58.6 µM (inactive) with SF-268; > 100 µM (inactive) with SF-295; > 100 µM (inactive) in the experiment with SK-MEL-28. In addition, the GI50 in the experiment on SK-OV-3 was 59.2 µM (inactive); in the experiment with SN12C, 46.5 µM (inactive); in the experiment with SR, 39.7 µM (inactive); in the experiment with SW-620, 41.4 µM (inactive); in the experiment with T47D, 46.7 µM (inactive); in the experiment with TK-10 it was > 100 µM (inactive). Moreover, the GI50 in the experiment on UACC-257 was > 100 µM (inactive); in the experiment on UACC-62, 66.4 µM (inactive).
Consider `COc1ccc(/C=C\c2cc(OC)c(OC)c(OC)c2)cc1OC(=O)CCC(=O)O`, for which the GI50 is 0.000263 µM (active) in the experiment with 786-0; 0.067 µM (active) in the experiment with A498; 0.857 µM (active) in the experiment with COLO 205; < 0.0001 µM (active) in the experiment with DU-145; 0.774 µM (active) in the experiment with HT-29; < 0.0001 µM (active) with MDA-MB-231. Besides, the GI50 is < 0.0001 µM (active) in the experiment with MDA-MB-435; < 0.0001 µM (active) with MDA-N; < 0.0001 µM (active) in the experiment on Malme-3M; < 0.0001 µM (active) in the experiment on SF-268; 0.000158 µM (active) with SF-295; < 0.01 µM (active) with SK-MEL-28. Also, the GI50 is 0.000895 µM (active) in the experiment with SK-OV-3; < 0.0001 µM (active) in the experiment on SN12C; < 0.0001 µM (active) in the experiment on SR; < 0.0001 µM (active) with SW-620; 29.9 µM (inactive) in the experiment on T47D; 46.6 µM (inactive) with TK-10. For the same compound, the GI50 with UACC-257 was > 10 µM (inactive); with UACC-62, < 0.0001 µM (active).
Take `CC(=O)OCC1=C(C)C[C@H]([C@@H](COC(C)=O)C2CCC3C4C[C@H]5O[C@]56CC=CC(=O)[C@]6(C)C4CC[C@@]32C)OC1=O` (stereo not given in full): the GI50 is 0.19 µM (active) in the experiment with 786-0; 0.624 µM (active) with A498; 0.307 µM (active) with COLO 205; 0.414 µM (active) in the experiment with DU-145; 0.123 µM (active) in the experiment with HT-29; 0.376 µM (active) with MDA-MB-231. Also, the GI50 in the experiment with MDA-MB-435 is 0.153 µM (active); in the experiment with MDA-N, 0.175 µM (active); in the experiment with Malme-3M, 0.274 µM (active); with SF-268 it was 0.379 µM (active); in the experiment on SF-295, 1.19 µM (inactive); with SK-MEL-28, 0.3 µM (active). The GI50 was 1.79 µM (inactive) with SK-OV-3; 0.444 µM (active) in the experiment on SN12C; 0.005 µM (active) with SR; 0.115 µM (active) in the experiment on SW-620; 0.353 µM (active) in the experiment with T47D; 0.993 µM (active) in the experiment on TK-10. Moreover, the GI50 is 0.302 µM (active) in the experiment with UACC-257 and 0.258 µM (active) in the experiment on UACC-62.
In the case of `C[N+](C)(N)CCC[N+](C)(C)N`, the GI50 in the experiment on 786-0, with A498, with COLO 205, with DU-145, with HT-29 and in the experiment on MDA-MB-231 was > 100 µM (inactive) throughout. Moreover, the GI50 with MDA-MB-435, in the experiment with MDA-N, with Malme-3M, with SF-268, in the experiment on SF-295 and in the experiment with SK-MEL-28 was > 100 µM (inactive) each time. Besides, the GI50 in the experiment with SK-OV-3, with SN12C, with SR, in the experiment on SW-620, in the experiment with T47D and in the experiment on TK-10 was > 100 µM (inactive) each time. Moreover, the GI50 in the experiment on UACC-257 and with UACC-62 was > 100 µM (inactive) throughout.
